Source: the CheMixHub viscosity set
Several values for one entry are separate records, joined by “and”; a condition that tells them apart may be missing. Equal values may be shown once.

Assay: xn = mol fraction of the nth substance listed

CN(C)C=O + O
Details | viscosity
293.15 K, 101 kPa, x1 = 0.0254 | 1.471 mPa·s
293.15 K, 101 kPa, x1 = 0.0555 | 1.784 mPa·s
293.15 K, 101 kPa, x1 = 0.0915 | 2.173 mPa·s
293.15 K, 101 kPa, x1 = 0.1355 | 2.435 mPa·s
293.15 K, 101 kPa, x1 = 0.1904 | 2.755 mPa·s
293.15 K, 101 kPa, x1 = 0.2608 | 2.969 mPa·s
293.15 K, 101 kPa, x1 = 0.2921 | 2.981 mPa·s
293.15 K, 101 kPa, x1 = 0.304 | 3.018 mPa·s
293.15 K, 101 kPa, x1 = 0.3199 | 2.973 mPa·s
293.15 K, 101 kPa, x1 = 0.3544 | 2.937 mPa·s
293.15 K, 101 kPa, x1 = 0.4137 | 2.705 mPa·s
293.15 K, 101 kPa, x1 = 0.4848 | 2.515 mPa·s
293.15 K, 101 kPa, x1 = 0.5714 | 2.002 mPa·s
293.15 K, 101 kPa, x1 = 0.6792 | 1.674 mPa·s
293.15 K, 101 kPa, x1 = 0.8171 | 1.276 mPa·s
293.15 K, 101 kPa, x2 = 0.1 | 0.9649 mPa·s and 0.9619 mPa·s
293.15 K, 101 kPa, x2 = 0.2 | 1.129 mPa·s and 1.125 mPa·s and 1.65 mPa·s
293.15 K, 101 kPa, x2 = 0.3 | 1.357 mPa·s and 1.351 mPa·s
293.15 K, 101 kPa, x2 = 0.4 | 1.674 mPa·s and 1.67 mPa·s and 2.25 mPa·s
293.15 K, 101 kPa, x2 = 0.5 | 2.177 mPa·s and 2.088 mPa·s
293.15 K, 101 kPa, x2 = 0.6 | 2.564 mPa·s and 2.556 mPa·s
293.15 K, 101 kPa, x2 = 0.7 | 2.885 mPa·s and 2.875 mPa·s
293.15 K, 101 kPa, x2 = 0.8 | 2.761 mPa·s and 2.754 mPa·s
293.15 K, 101 kPa, x2 = 0.9 | 2.019 mPa·s and 2.015 mPa·s
293.15 K, 101 kPa, x2 = 0.92 | 1.818 mPa·s and 1.813 mPa·s
293.15 K, 101 kPa, x2 = 0.94 | 1.622 mPa·s and 1.616 mPa·s
293.15 K, 101 kPa, x2 = 0.96 | 1.408 mPa·s and 1.403 mPa·s
293.15 K, 101 kPa, x2 = 0.98 | 1.203 mPa·s and 1.2 mPa·s
293.15 K, 101.33 kPa, x1 = 0.0217 | 1.225 mPa·s
293.15 K, 101.33 kPa, x1 = 0.0466 | 1.483 mPa·s
293.15 K, 101.33 kPa, x1 = 0.0989 | 2.011 mPa·s
293.15 K, 101.33 kPa, x1 = 0.1478 | 2.357 mPa·s
293.15 K, 101.33 kPa, x1 = 0.196 | 2.65 mPa·s
293.15 K, 101.33 kPa, x1 = 0.2481 | 2.888 mPa·s
293.15 K, 101.33 kPa, x1 = 0.2859 | 2.908 mPa·s
293.15 K, 101.33 kPa, x1 = 0.3728 | 2.707 mPa·s
293.15 K, 101.33 kPa, x1 = 0.4919 | 2.262 mPa·s
293.15 K, 101.33 kPa, x1 = 0.5936 | 1.748 mPa·s
293.15 K, 101.33 kPa, x1 = 0.7991 | 1.184 mPa·s
293.15 K, 101.33 kPa, x1 = 0.8795 | 1.073 mPa·s
298.15 K, 101 kPa, x2 = 0.1 | 0.9018 mPa·s and 0.8984 mPa·s
298.15 K, 101 kPa, x2 = 0.3 | 1.233 mPa·s and 1.232 mPa·s
298.15 K, 101 kPa, x2 = 0.4 | 1.508 mPa·s and 1.503 mPa·s
298.15 K, 101 kPa, x2 = 0.5 | 1.853 mPa·s and 1.847 mPa·s
298.15 K, 101 kPa, x2 = 0.6 | 2.226 mPa·s and 2.225 mPa·s
298.15 K, 101 kPa, x2 = 0.7 | 2.477 mPa·s and 2.469 mPa·s
298.15 K, 101 kPa, x2 = 0.8 | 2.345 mPa·s
298.15 K, 101 kPa, x2 = 0.9 | 1.746 mPa·s and 1.744 mPa·s
298.15 K, 101 kPa, x2 = 0.92 | 1.583 mPa·s and 1.576 mPa·s
298.15 K, 101 kPa, x2 = 0.94 | 1.412 mPa·s and 1.408 mPa·s
298.15 K, 101 kPa, x2 = 0.96 | 1.234 mPa·s
298.15 K, 101 kPa, x2 = 0.98 | 1.065 mPa·s and 1.063 mPa·s
302.15 K, 101 kPa, x1 = 0.0254 | 1.266 mPa·s
302.15 K, 101 kPa, x1 = 0.0555 | 1.535 mPa·s
302.15 K, 101 kPa, x1 = 0.0915 | 1.856 mPa·s
302.15 K, 101 kPa, x1 = 0.1355 | 2.071 mPa·s
302.15 K, 101 kPa, x1 = 0.1904 | 2.333 mPa·s
302.15 K, 101 kPa, x1 = 0.2608 | 2.542 mPa·s
302.15 K, 101 kPa, x1 = 0.2921 | 2.58 mPa·s
302.15 K, 101 kPa, x1 = 0.304 | 2.604 mPa·s
302.15 K, 101 kPa, x1 = 0.3199 | 2.572 mPa·s
302.15 K, 101 kPa, x1 = 0.3544 | 2.526 mPa·s
302.15 K, 101 kPa, x1 = 0.4137 | 2.327 mPa·s
302.15 K, 101 kPa, x1 = 0.4848 | 2.201 mPa·s
302.15 K, 101 kPa, x1 = 0.5714 | 1.812 mPa·s
302.15 K, 101 kPa, x1 = 0.6792 | 1.533 mPa·s
302.15 K, 101 kPa, x1 = 0.8171 | 1.176 mPa·s
303.15 K, 101 kPa, x2 = 0.1 | 0.8402 mPa·s and 0.8389 mPa·s
303.15 K, 101 kPa, x2 = 0.2 | 0.9593 mPa·s and 0.9567 mPa·s
303.15 K, 101 kPa, x2 = 0.3 | 1.137 mPa·s and 1.122 mPa·s
303.15 K, 101 kPa, x2 = 0.4 | 1.354 mPa·s and 1.352 mPa·s
303.15 K, 101 kPa, x2 = 0.5 | 1.641 mPa·s and 1.639 mPa·s
303.15 K, 101 kPa, x2 = 0.6 | 1.943 mPa·s and 1.939 mPa·s
303.15 K, 101 kPa, x2 = 0.7 | 2.134 mPa·s and 2.132 mPa·s
303.15 K, 101 kPa, x2 = 0.8 | 2.026 mPa·s and 2.02 mPa·s
